Measured values from patent publication US20240216397A1, “COMPOSITION FOR AMELIORATING SKIN TISSUE ABNORMALITY” (Kyoto University, priority 2021, published 2024).
Where a name gives a salt, the structure may show the parent alone.

How the values were obtained:
[1] = system: atopic dermatitis-like skin inflammation induced by repeated applications of MC903; assay: Model mice of MC903-induced atopic dermatitis-like skin inflammation: auricle appearance and auricular thickness; assay type: in vivo, C57BL/6N female mice; details: 10 μL of 5 mM topically to each side of left auricle daily for 10 days, MC903 every other day; vs MC903 + EtOH
Procedure: (§1) The effect of KUS121 application on atopic dermatitis was evaluated. For modeling atopic dermatitis, model mice of atopic dermatitis-like skin inflammation induced by repeated applications of MC903, an active vitamin D3 analog, were used. Eight-week-old C57BL/6N female mice were used (purchased from SHIMIZU Laboratory Supplies Co., Ltd.). Under isoflurane anesthesia, the following substances were applied for 10 days. After 10 μL of 5 mM KUS121 (solvent: 90% EtOH) or 90% EtOH was applied to each side of the left auricle, 10 μL of 100 μM MC903 (solvent: 100% EtOH) was applied on each side. From the start of the substance application, KUS121 or 90% EtOH was applied daily and MC903 was applied every other day. The auricular thicknesses were measured immediately before the substance application using a constant pressured thickness measuring instrument (Tecloc). The thicknesses were measured immediately before the first substance application and then every other day for ten days. In addition, the effect of KUS121 alone was evaluated by the following substance applications. To each side of the left auricle 10 μL of 5 mM KUS121 was applied daily and to each side of the right auricle 10 μL of 90% EtOH was applied daily. The auricular thicknesses were measured immediately before the first substance application and then every other day for ten days. A blood sample was collected from a buccal vein on day 11 from the first substance application (14 hours after the substance application on day 10). The blood was allowed to stand at room temperature for at least 30 minutes, the serum was separated by centrifugation (1500×g, 10 minutes), and the serum levels of immunoglobulins (IgE and IgG1) was measured using Elisa kit (Bethyl Laboratories).
The experiments were performed as in Example 1, except for KUS187 was used in place of KUS121. The appearance of the auricle was observed and the auricular thicknesses were measured. […] The mice applied with MC903 and treated with EtOH had skin redness, desquamation, and crust as well as increased auricular thickness.

Filaggrin (Flg) = assay: Flg mRNA expression in auricular sections, real-time PCR; assay type: in vivo, C57BL/6N female mice; details: auricular sections day 11; Gapdh internal standard; 5 mM topical + MC903; vs MC903 + EtOH and EtOH alone
Procedure: (§2) After the blood collection in Example 1, the mice were sacrificed by cervical dislocation and auricular sections were collected. Some of the auricular sections were paraffin-embedded and other sections were served for RNA extraction. The paraffin-embedded sections were observed by hematoxylin-eosin (HE) staining. RNA was extracted from the sections and cDNA was synthesized. The expression levels of various genes were analyzed by real-time PCR with SYBR Green using each cDNA as a template. Gapdh was used as an internal standard.

[2] = system: irritant contact dermatitis induced by sodium dodecyl sulfate (SDS); assay: Model mice of SDS-induced irritant contact dermatitis: auricular thickness; assay type: in vivo, C57BL6/J male mice; details: 5 mM topical daily for 4 days + 4% SDS daily; vs SDS + EtOH
Procedure: The effect of KUS121 application on irritant contact dermatitis was evaluated. For modeling irritant contact dermatitis, model mice of irritant contact dermatitis induced by sodium dodecyl sulfate (SDS) was used. Ten-week-old C57BL6/J male mice (purchased from Oriental Bioservice, Inc) were used. The mice were anesthetized by subcutaneously injecting 150 μL of three types of mixed anesthesia. Under anesthesia the following substances were applied for 4 days. After 10 μL of 5 mM KUS121 or 90% EtOH was applied to each side of the left auricle, 10 μL of 4% SDS was applied on each side. The substances were applied daily and the auricular thicknesses were measured immediately before the substance applications.

[3] = system: itching in atopic dermatitis-like skin inflammation induced by MC903; assay: Itching (scratching behavior) and auricular thickness in MC903 model mice, treatment started on day 6; assay type: in vivo, C57BL/6N female mice
Procedure: The effect of KUS121 application on itching was evaluated. For modeling itching, model mice of atopic dermatitis-like skin inflammation induced by repeated applications of MC903 were used. Eight-week-old C57BL/6N female mice (purchased from SHIMIZU Laboratory Supplies Co., Ltd.) were used. Under isoflurane anesthesia, the following substances were applied for 15 days. 10 μL of 100 μM MC903 was applied on each side of both auricles every three days. To each side of the left auricle 10 μL of 5 mM KUS121 was applied daily and to each side of the right auricle 10 μL of 90% EtOH was applied daily. The application of KUS121 or 90% EtOH was started on day 6 from the first substance application; KUS121 or 90% EtOH was applied at first and then MC903 was applied. On day 12 from the start of the treatment, 1 to 2 hours after the substance application, five mice awakened from anesthesia were left in a shooting box (SHINANO manufacturing CO., LTD, W 25×D 25×H 30 cm) and their behavior was recorded from above using a video camera (Victor). Scratching behavior was evaluated by counting the total number of ear contacts by the front paws and determining the total scratching time by the hind paws within one hour from the start of the recording. The data of the five mice were summed and the total values were adopted as the results.

IgE = assay: Serum IgE level (Elisa kit) in MC903 model mice; assay type: in vivo, C57BL/6N female mice; details: serum on day 11; 5 mM topical daily + MC903; vs MC903 + EtOH
Procedure: as §1, with “From the start of the substance application, KUS121 or 90% EtOH was applied daily and MC903 was applied every other day.” left out, “To each side of the left auricle 10 μL of 5 mM KUS121 was applied daily and to each side of the right auricle 10 μL of 90% EtOH was applied daily.” left out, “A blood sample was collected from a buccal vein on day 11 from the first substance application (14 hours after the substance application on day 10).” left out

IgG1 = assay: Serum IgG1 level (Elisa kit) in MC903 model mice; assay type: in vivo, C57BL/6N female mice; details: serum on day 11; 5 mM topical daily + MC903; vs MC903 + EtOH
Procedure: as §1, with “From the start of the substance application, KUS121 or 90% EtOH was applied daily and MC903 was applied every other day.” left out, “To each side of the left auricle 10 μL of 5 mM KUS121 was applied daily and to each side of the right auricle 10 μL of 90% EtOH was applied daily.” left out, “A blood sample was collected from a buccal vein on day 11 from the first substance application (14 hours after the substance application on day 10).” left out

[4] = system: psoriasis induced by repeated applications of 5% imiquimod cream; assay: Model mice of imiquimod-induced psoriasis: auricular thickness; assay type: in vivo, C57BL6/N female mice; details: 5 mM topical daily for 6 or 18 days + 5% imiquimod cream; vs imiquimod + EtOH
Procedure: The effect of KUS121 application on psoriasis was evaluated. For modeling psoriasis, model mice of psoriasis induced by repeated applications of 5% imiquimod cream was used. Six- to eight-week-old C57BL6/N female mice (purchased from Oriental Bioservice, Inc) were used. The mice were anesthetized by subcutaneously injecting 150 μL of three types of mixed anesthesia. Under anesthesia the following substances were applied for 6 or 18 days. After 10 μL of 5 mM KUS121 or 90% EtOH was applied to each side of the left auricle, 5 mg of 5% imiquimod cream (MOCHIDA PHARMACEUTICAL CO., LTD.) was applied on each side. KUS121 or 90% EtOH was applied daily and imiquimod cream was applied on days 0, 2, 4, 7, 9, 11, 14, and 16. The auricular thicknesses were measured immediately before the substance applications.

Keratin 6a (Krt6a) = assay: Krt6a mRNA expression in auricular sections, real-time PCR; assay type: in vivo, C57BL/6N female mice; details: auricular sections day 11; Gapdh internal standard; 5 mM topical + MC903; vs MC903 + EtOH
Procedure: as §2

skin barrier function = assay: Transepidermal water loss and auricular thickness in MC903-applied mice (skin barrier function); assay type: in vivo, C57BL6/N female mice; details: 5 mM topical daily for 12 days + MC903 every other day; vs MC903 + EtOH
Procedure: The effect of KUS121 application on skin barrier function was evaluated by determining transepidermal water loss. Six- to eight-week-old C57BL6/N female mice (purchased from Oriental Bioservice, Inc) were used. The mice were anesthetized by subcutaneously injecting 150 μL of three types of mixed anesthesia (1 mg/mL medetomidine hydrochloride, 5 mg/mL mitazolam, 5 mg/mL butorphanol tartrate, solvent: sterile distilled water). Under anesthesia the following substances were applied for 12 days. For each mouse 10 μL of 5 mM KUS121 was applied to each side of the left auricle and 10 μL of 90% EtOH was applied to each side of the right auricle. Some mice were additionally applied with 10 μL of 100 μM MC903 on each side of both auricles every other day; KUS121 or 90% EtOH was applied at first and then MC903 was applied. The levels of transepidermal water loss was determined using APO SCAN AS-VT100 (Asahi Techno Lab. ltd.). The auricular thicknesses were measured immediately before the first substance application and daily for subsequent 12 days. The levels of transepidermal water loss were determined on days 0, 2, 4, 6, 8, 10, 11, and 12 immediately before the substance applications in each day.

KLK7 = KLK7 mRNA expression in auricular sections of MC903 model mice; assay type: in vivo, C57BL/6N female mice; details: mice treated as in Example 1; 5 mM topical + MC903; vs MC903 + EtOH
Procedure: as §1, with “From the start of the substance application, KUS121 or 90% EtOH was applied daily and MC903 was applied every other day.” left out, “To each side of the left auricle 10 μL of 5 mM KUS121 was applied daily and to each side of the right auricle 10 μL of 90% EtOH was applied daily.” left out, “A blood sample was collected from a buccal vein on day 11 from the first substance application (14 hours after the substance application on day 10).” left out, “Laboratories). […]” for “Laboratories).”

[5] = system: epidermal thickening and infiltration of inflammatory cells into the dermis; assay: HE staining of auricular sections of MC903 model mice; assay type: in vivo, C57BL/6N female mice; details: auricular sections day 11; 5 mM topical daily + MC903; vs MC903 + EtOH
Procedure: as §2

| Structure (SMILES) | auricular thickness [1] | skin lesion (skin redness, desquamation, crust), appearance of auricle [1] | Flg expression (messenger RNA) (Filaggrin (Flg)) | auricular thickness [2] | scratching behavior (number of ear contacts by front paws, scratching time by hind paws within one hour) ([3]; day 12, 5 mM topical daily from day 6, MC903 every three days, vs MC903 + EtOH) | increase of auricular thickness ([3]; treatment started after 6 days from the start of MC903 application, 5 mM topical daily) | blood level of IgE (IgE) | blood level of IgG1 (IgG1) | auricular thickness [4] | Krt6a expression (messenger RNA) (Keratin 6a (Krt6a)) | auricular thickness (skin barrier function) | transepidermal water loss from auricular skin (skin barrier function) | KLK7 expression (messenger RNA) (KLK7) | lesions in HE staining (epidermal thickening, infiltration of inflammatory cells such as eosinophils into the dermis) [5] |
| --- | --- | --- | --- | --- | --- | --- | --- | --- | --- | --- | --- | --- | --- | --- |
| CCCCOc1c(C=O)cc(C)cc1-c1ccc(/N=N/c2cc(S(=O)(=O)O)c3ccccc3c2N)cn1 [KUS187, 4-amino-3-[6-(3-formyl-2-butoxy-5-methylphenyl)pyridine-3-ylazo] naphthalene-1-sulfonic acid sodium salt] | less increased auricular thickness | less skin lesion |  |  |  |  |  |  |  |  |  |  |  |  |
| Cc1cc(F)ccc1-c1ccc(/N=N/c2cc(S(=O)(=O)O)c3ccccc3c2N)cn1 [KUS121, 4-amino-3-[6-(4-fluoro-2-methylphenyl)pyridine-3-ylazo]naphthalene-1-sulfonic acid sodium salt] | less increased auricular thickness | less skin lesion | elevated | the increase was suppressed | less | suppressed | lower | lower | No difference | weaker | increases were suppressed | increases were suppressed | the increase was suppressed | suppressed more strongly |
